Source: paper PMC8410599, “The structural basis of odorant recognition in insect olfactory receptors” (Nature, 2021)
Where two headings read alike, the source gives them in different places. Values belong to the compound of their own block, whether it stands above or below them.

Assays:
Orco [1] = molecular target: T1, Orco (Apocrypta bakeri, UniProt B0FAQ4); assay: cell-based; design: species or system HEK293; GCaMP6s calcium fluorescence dose-response of olfactory receptor channel expressed in HEK293 cells
T1 construct: gene Or2; expressed in HEK293 cells with GCaMP6s; homotetramer
T1 sequence (B0FAQ4 1-474): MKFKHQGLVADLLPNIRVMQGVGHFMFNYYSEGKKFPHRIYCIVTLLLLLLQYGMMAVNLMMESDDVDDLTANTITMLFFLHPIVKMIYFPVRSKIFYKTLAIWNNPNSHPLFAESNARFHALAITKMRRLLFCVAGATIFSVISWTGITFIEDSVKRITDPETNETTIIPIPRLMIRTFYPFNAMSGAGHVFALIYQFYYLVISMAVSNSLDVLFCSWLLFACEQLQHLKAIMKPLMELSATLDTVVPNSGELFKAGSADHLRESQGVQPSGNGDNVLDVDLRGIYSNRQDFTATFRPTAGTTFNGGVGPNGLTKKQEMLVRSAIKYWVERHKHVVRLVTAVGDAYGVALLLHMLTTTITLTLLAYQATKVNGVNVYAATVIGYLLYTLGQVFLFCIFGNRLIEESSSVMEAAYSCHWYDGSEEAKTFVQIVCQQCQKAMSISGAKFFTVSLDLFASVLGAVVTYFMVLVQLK
Experimental: (§1) Seven ligand concentrations were used for each transfection condition in sequential dilutions of 3, alongside a control well of only reading buffer. Ligands were dissolved in DMSO to 150 mM, then diluted with reading buffer to a highest final-well concentration of 0.5 mM (DMSO never exceeded 0.5%). Water-soluble ligands (arabinose, caffeine, denatonium, glucose, MSG, sucrose) were dissolved directly into reading buffer. If experimental data indicated a more sensitive response than this range, the concentration was adjusted accordingly. Ligand concentrations for mutants were the same as for the corresponding wild-type OR. Each plate contained a negative control of GCaMP6s transfected alone and exposed to eugenol for MhOR5 and VUAA1 for Orco experiments. […] A control of DMSO alone was also tested to ensure no activity effects were due to the solvent. Each concentration of ligand was applied to four technical replicates, which were averaged and considered a single biological replicate. The baseline fluorescence (F) was calculated as the average fluorescence of the 30 s before odour was added to the plate. Within each well, ΔF was calculated as the difference between the average of the last 10 s of fluorescence and the baseline F. ΔF/F was then calculated as the ΔF divided by the baseline fluorescence (F). […]

Orco [2] = molecular target: T1, Orco; assay: cell-based; design: species or system HEK293; GCaMP6s calcium fluorescence (ΔF/F) dose-response in HEK cells expressing the odorant receptor
Experimental: as §1

MhOR5 = molecular target: T2, MhOR5 (Machilis hrabei, UniProt Z9G0B3H7M0); assay: GCaMP6s calcium flux, HEK293; assay type: cell-based; details: agonist, sub-maximal efficacy; 2 mM CaCl2, pH 7.4
T2 construct: Lys2-Pro474; cryo-EM: N-terminal Strep II-sfGFP cleaved with HRV 3C, HEK293S GnTI-; calcium assay: pME18s vector without fluorescent marker, HEK293 with GCaMP6s; homotetramer
T2 sequence (Z9G0B3H7M0 6-478): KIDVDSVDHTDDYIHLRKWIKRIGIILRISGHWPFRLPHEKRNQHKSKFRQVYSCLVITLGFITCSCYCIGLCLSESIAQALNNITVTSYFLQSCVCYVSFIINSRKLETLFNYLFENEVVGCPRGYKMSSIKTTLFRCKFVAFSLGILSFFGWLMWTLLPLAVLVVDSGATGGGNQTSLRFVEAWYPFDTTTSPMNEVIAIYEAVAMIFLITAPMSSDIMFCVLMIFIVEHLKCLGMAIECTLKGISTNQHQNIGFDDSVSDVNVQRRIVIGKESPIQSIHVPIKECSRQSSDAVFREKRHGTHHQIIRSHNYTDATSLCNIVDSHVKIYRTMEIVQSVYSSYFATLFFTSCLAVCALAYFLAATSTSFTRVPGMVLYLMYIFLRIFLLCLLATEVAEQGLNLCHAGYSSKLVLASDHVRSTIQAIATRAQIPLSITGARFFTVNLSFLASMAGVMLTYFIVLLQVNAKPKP

EC50 (Orco [1]): 55.2 µM
SMILES: CCc1ccc(NC(=O)CSc2nnc(-c3cccnc3)n2CC)cc1 [VUAA1]

EC50 (Orco [2]): > 500 µM
SMILES: CC(=O)c1ccccc1 [acetophenone]

SMILES: CCN(CC)C(=O)c1cccc(C)c1 [DEET]
EC50 (MhOR5): MhOR5 was also activated by the insect repellent DEET
